These results are taken from patent publication US10017481B2, “Conformationally constrained, fully synthetic macrocyclic compounds” (POLYPHOR AG, priority 2012, dated 2018).

In assay [1] the target is T1, Bombesin receptor subtype 3 (BB3 receptor) (Homo sapiens, UniProt P32247).
T1 construct: expressed in transfected cells; host or cells: Ca2+ optimized hematopoietic cell lines (rat)
T1 sequence (P32247 1-399): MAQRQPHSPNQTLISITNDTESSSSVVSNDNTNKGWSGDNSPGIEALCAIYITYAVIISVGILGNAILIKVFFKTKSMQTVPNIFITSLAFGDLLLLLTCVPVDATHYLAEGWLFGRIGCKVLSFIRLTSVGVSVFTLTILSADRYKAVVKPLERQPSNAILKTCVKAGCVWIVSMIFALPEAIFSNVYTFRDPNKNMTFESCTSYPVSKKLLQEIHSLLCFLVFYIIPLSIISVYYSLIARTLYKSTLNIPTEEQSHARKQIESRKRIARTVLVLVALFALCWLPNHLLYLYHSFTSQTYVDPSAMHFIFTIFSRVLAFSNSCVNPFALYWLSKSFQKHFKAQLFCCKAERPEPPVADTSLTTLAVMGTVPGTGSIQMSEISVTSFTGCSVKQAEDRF
Kind of assay: Ca2+ flux (FLIPR) assay, BB3 receptor, agonist/antagonist mode. It is filed as cell-based. Conditions: agonist mode. Here is the method:
Biological and Pharmacological Methods 1. Ca^2+ Flux Assays for the GPCRs Oxytocin Receptor (OT Receptor), Thyrotropin-Releasing Hormone Receptor (TRH Receptor) and Bombesin Receptor Subtype 3 (BB3 Receptor)
Assays were performed on a FLIPR^TETRA fluorometric imaging plate reader (Molecular Devices) with ScreenWorks Version 2 (Molecular Devices) as device operating and data analysis software.
Dose dependent agonist and antagonist activities were determined. Percentage activation and percentage inhibition values were determined.
Percentage activation was determined upon initial addition of the sample compounds followed by 10 minutes' incubation at 25° C. Following compound incubation, reference agonists were added at EC80 to determine percentage inhibition.
Reference agonists were purchased from reputable commercial vendors and prepared according to each ligand's specifications. All handling of ligands were done to ensure proper control throughout the experiments.
Example compounds were weighed on a Microbalance (Mettler MX5) and dissolved in 100% DMSO to a final concentration of 2.5 mM and subsequently diluted into the assay buffer.
The assay buffer was a supplemented HBSS (Hank's Balanced Salt Solution). HBSS was supplemented with 20 mM HEPES (4-(2-hydroxyethyl)-piperazin-1-ethansulfonic acid) and 2.5 mM Probenecid (Sigma P8761).
GPCR assays were performed using Ca^2+ optimized hematopoietic cell lines (rat) with cultures never exceeding 90% confluency. Cells were harvested and seeded (from cultures at less than 90% confluency) at 50000 cells/well for a 96-well plate (12500 cells/well for 384). After seeding, the assay plates were incubated for 45 minutes at room temperature. After room temperature incubation, the assay plates were incubated at 37° C. 5% CO2 for 24 hours prior to assaying.
All GPCR assays were performed using Fluo-8 Ca^2+ dye.
Ca^2+ dye was prepared at 1× dye concentration in GPCR assay buffer. After 24 hours of incubation, cells were washed with GPCR assay buffer, and then Ca^2+-dye (100 μL/well) was added.
The plates were incubated for 90 minutes at 30° C. 5% CO2 prior to FLIPR assay.
Compound plates were prepared to add 50 μL/well during the agonist assay mode. During the FLIPR assay, 50 μL/well from the compound plate was diluted 3-fold into the existing 100 μL/well from the dye loading step. Therefore all compounds were prepared as 3× the final concentration desired in the assay.
After completion of the first single addition assay run, assay plate was removed from the FLIPR Tetra and placed at 25° C. for 7 minutes before antagonist assay.
Using the EC80 values determined during the agonist assay, all pre-incubated sample compound and reference antagonist (if applicable) wells were stimulated at the EC80 of the reference agonist. As reference ligands for these assays their obvious natural ligands oxytocin (OT), thyrotropin-releasing hormone (TRH) and bombesin (6-14) [BN(6-14)] were used.
After the addition of the reference agonist fluorescence was monitored for 180 sec using FLIPR Tetra.
From the FLIPR data, with negative control correction enabled, the maximum statistic for each well was exported and percentage activation relative to Emax control was calculated.

The target of assay [2] is T2, Human recombinant cathepsin S (Homo sapiens, UniProt P25774).
T2 construct: host or cells: murine myeloma NS0 cells
Conditions: reference compound of the CatS assay; 0.1 μg/ml enzyme, acetate buffer pH 4.5, 25° C.; cited from earlier work.

T2 sequence (P25774 115-331): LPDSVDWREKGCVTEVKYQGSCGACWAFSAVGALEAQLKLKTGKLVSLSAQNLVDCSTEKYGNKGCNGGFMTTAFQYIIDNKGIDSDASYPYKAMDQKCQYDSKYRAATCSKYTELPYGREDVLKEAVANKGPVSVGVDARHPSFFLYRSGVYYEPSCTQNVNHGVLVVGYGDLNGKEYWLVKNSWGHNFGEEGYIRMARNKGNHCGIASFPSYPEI

One may read the EC50 as the concentration needed to bring the measured effect to its halfway point. Lower therefore signals an effect from little substance. `CN1CC[C@H](NC(=O)Cc2ccc3ccccc3c2)C(=O)N2C[C@@H](O)C[C@H]2COc2ccsc2-c2cc(n(C)n2)C1=O` [Ex. 265, N-[(9S,11S,15S)-11-hydroxy-18,21-dimethyl-14,19-dioxo-7-oxa-3-thia-13,18,21,22-tetraazatetracyclo[18.2.1.0^2,6.0^9,13]tricosa-1(22),2(6),4,20(23)-tetraen-15-yl]-2-(2-naphthyl)acetamide]: in assay [1], it took 630 nM to reach a half-maximal effect (EC50) and the “Agonist activity % activation at 12.5 μM” value worked out at 84%.
For `CO[C@H]1C[C@H]2COc3ccsc3-c3cc(n(C)n3)C(=O)N(C)CC[C@H](NC(=O)Cc3ccc4ccccc4c3)C(=O)N2C1` [Ex. 275, N-[(9S,11S,15S)-11-methoxy-18,21-dimethyl-14,19-dioxo-7-oxa-3-thia-13,18,21,22-tetraazatetracyclo[18.2.1.0^2,6.0^9,13]tricosa-1(22),2(6),4,20(23)-tetraen-15-yl]-2-(2-naphthyl)acetamide], in that order: 780 nM and 60%.
What is called IC50 is the concentration that inhibits the measured activity by half. With `CC(C)C[C@H](NC(=O)[C@H]1O[C@@H]1C(=O)O)C(=O)NCCCCN=C(N)N` [E-64], in assay [2], the IC50 was 1.4 nM.
Regarding `CN1CC[C@H](NCCc2ccc3ccccc3c2)C(=O)N2C[C@@H](O)C[C@H]2COc2ccsc2-c2cc(n(C)n2)C1=O` [Ex. 282, (9S,11S,15S)-11-hydroxy-18,21-dimethyl-15-{[2-(2-naphthyl)ethyl]amino}-7-oxa-3-thia-13,18,21,22-tetraazatetracyclo[18.2.1.0^2,6.0^9,13]tricosa-1(22),2(6),4,20(23)-tetraene-14,19-dione], the “Agonist activity % activation at 12.5 μM” value in assay [1] stood at 39%.
The same measure, in the same setting: the result for `CN1CC[C@H](NC(=O)Cc2cccc3ccccc23)C(=O)N2C[C@@H](O)C[C@H]2COc2ccsc2-c2cc(n(C)n2)C1=O` [Ex. 267, N-[(9S,11S,15S)-11-hydroxy-18,21-dimethyl-14,19-dioxo-7-oxa-3-thia-13,18,21,22-tetraazatetracyclo[18.2.1.0^2,6.0^9,13]tricosa-1(22),2(6),4,20(23)-tetraen-15-yl]-2-(1-naphthyl)acetamide] reads 61%.
